Measurements as given in ChEMBL document CHEMBL1136361, “5-amino-1-(2,6-dichloro-4-trifluoromethyl-phenyl)-3-[3H3]-methylsulfanyl-1H-pyrazole-4-carbonitrile (CTOM): synthesis and characterization of a novel and selective insect GABA receptor radioligand” (Bioorg Med Chem Lett, 2003).

Assays:
[1] = Mortality percent was determined in flea; range is 50-100%; type: ADME; conditions: pulicinae
[2] = In vitro binding affinity against GABA receptor in mouse brain; type: tissue-based
[3] = In vitro binding affinity against GABA receptor in house fly; design: species or system Musca domestica

SMILES	Mortality [1] [%]	Ki [2] [nM]	Ki [3] [nM]
N#Cc1nn(-c2c(Cl)cc(C(F)(F)F)cc2Cl)c(N)c1[S+]([O-])C(F)(F)F (stereo not drawn) [FIPRONIL]	50		
CSc1nn(-c2c(Cl)cc(C(F)(F)F)cc2Cl)c(N)c1C#N		4	8
